In ChEMBL document CHEMBL5390322, “Discovery of 5-Azaquinoxaline Derivatives as Potent and Orally Bioavailable Allosteric SHP2 Inhibitors” (ACS Med Chem Lett, 2023) one finds CLint scaled, Papp A→B and IC50 data, which are given here for 14 compounds.

A short description of series [1]: Metabolic stability in mouse liver microsome assessed as intrinsic clearance at […] preincubated for 5 mins followed by NADPH addition and measured after 20 mins by LC-MS analysis. It counts as ADME. The note with it: liver microsomes, dose 2.5 µM, time 25 min, read-out: CLH.
A short description of series [2]: Metabolic stability in human liver microsome assessed as intrinsic clearance at […] preincubated for 5 mins followed by NADPH addition and measured after 20 mins by LC-MS analysis. The settings on record: liver microsomes, dose 2.5 µM, time 25 min, read-out: CLH. It counts as ADME.
A short description of series [3]: Metabolic stability in mouse hepatocyte assessed as intrinsic clearance incubated for 1 to 2 hrs by LC-MS analysis. It counts as ADME, cell-based. The note with it: hepatocytes, time 1-2 hrs, read-out: CLH.
Series [4] in a line: Permeability of compound from apical to basolateral side in LLC-PK1 cells incubated for 2 hrs by LC-MS/MS analysis. Format: ADME, cell-based, Sus scrofa. The note with it: pig, read-out: permeability.
The nature of series [5]: Metabolic stability in human hepatocyte assessed as intrinsic clearance incubated for 1 to 2 hrs by LC-MS analysis. Format: ADME, cell-based. The note with it: hepatocytes, time 1-2 hrs, read-out: CLH.
The target in series [6] is Mitogen-activated protein kinase; ERK1/ERK2 (Homo sapiens, UniProt P27361+P28482). The series is described as follows: Inhibition of ERK1/2 phosphorylation at Thr202/Tyr204 residues in human KYSE520 cells incubated for 1 hrs by Western blot analysis. It counts as cell-based.

As for `CC1(N)CCN(c2cnc3nc(Sc4ccnc(N)c4Cl)ccc3n2)CC1`, the figures for the CLint scaled at […] in series [1] and in series [2] were 30 mL/min/kg and 3 mL/min/kg, respectively. Further, the CLint scaled in series [3] was 8 mL/min/kg. For the same compound, the Papp A→B at 2 h in series [4] was 10 ×10⁻⁶ cm/s. Further, the CLint scaled at 10000 µM in series [5] turned out to be 2 mL/min/kg. In addition, in series [6], the IC50 was found to be 58 nM.

As to `Nc1nccc(Sc2ccc3nc(N4CCC5(CC4)Cc4cc(F)ccc4[C@H]5N)cnc3n2)c1Cl`, the CLint scaled at […] in series [1] came to 17 mL/min/kg; in series [2] it was 5 mL/min/kg. In series [3], the CLint scaled is 37 mL/min/kg. Moreover, in series [4], the Papp A→B at 2 h amounted to 6 ×10⁻⁶ cm/s. Besides, in series [5], the CLint scaled at 10000 µM stood at 12 mL/min/kg. The IC50 in series [6] was 10 nM.

`Cc1ccc2c(n1)CC1(CCN(c3cnc4nc(Sc5ccnc(N)c5Cl)ccc4n3)CC1)[C@@H]2N`: the figures for the CLint scaled at […] in series [1] and in series [2] were 41 mL/min/kg and 14 mL/min/kg, respectively. The CLint scaled in series [3] is 35 mL/min/kg. The Papp A→B at 2 h in series [4] was found to be 10 ×10⁻⁶ cm/s. Also, in series [5], the CLint scaled at 10000 µM is 15 mL/min/kg. Moreover, the IC50 in series [6] is 17 nM.

Take `CC1(N)CCN(c2cnc3nc(Sc4cccc(C#N)c4Cl)ccc3n2)CC1`: the values for the CLint scaled at […] in series [1] and in series [2] were 23 mL/min/kg and 9 mL/min/kg, respectively. In series [3], the CLint scaled came to 12 mL/min/kg. In series [4], the Papp A→B at 2 h turned out to be 9 ×10⁻⁶ cm/s. Moreover, the CLint scaled at 10000 µM in series [5] came out at 7 mL/min/kg. The compound also gave an IC50 in series [6] of 991 nM.

Turning to `CC1(N)CCN(c2cnc(-c3cccc(Cl)c3Cl)c(N)n2)CC1`, the IC50 in series [6] was 254 nM.

As to `CC1(N)CCN(c2cnc3nc(Oc4cccc(Cl)c4Cl)ccc3n2)CC1`, the CLint scaled at […] in series [1] was 18 mL/min/kg; in series [2], 4 mL/min/kg. Also, in series [3], the CLint scaled stood at 10 mL/min/kg. The Papp A→B at 2 h in series [4] was found to be 11 ×10⁻⁶ cm/s. Besides, the CLint scaled at 10000 µM in series [5] worked out at 2 mL/min/kg. In series [6], this compound returned an IC50 of 767 nM.

As to `COc1cnc2c(c1)[C@@H](N)C1(CCN(c3cnc4nc(Sc5ccnc(N)c5Cl)ccc4n3)CC1)C2`, the CLint scaled at […] stood at 29 mL/min/kg in series [1] and 7 mL/min/kg in series [2]. In addition, the CLint scaled in series [3] was found to be 30 mL/min/kg. In addition, in series [4], the Papp A→B at 2 h came out at 6 ×10⁻⁶ cm/s. Further, in series [5], the CLint scaled at 10000 µM amounted to 12 mL/min/kg. The same compound returned an IC50 in series [6] of 8 nM.

Take `CC1(N)CCN(c2cnc3nc(-c4cccc(Cl)c4Cl)ccc3n2)CC1`: the CLint scaled at […] in series [1] worked out at 25 mL/min/kg; in series [2] it was 3 mL/min/kg. Moreover, the CLint scaled in series [3] turned out to be 8 mL/min/kg. The CLint scaled at 10000 µM in series [5] was 2 mL/min/kg. Further, in series [6], the IC50 is given as 471 nM.

With `Nc1nccc(Sc2ccc3nc(N4C[C@H]5C[C@@H](C4)[C@H]5N)cnc3n2)c1Cl`, the values for the CLint scaled at […] in series [1] and in series [2] were 28 mL/min/kg and 4 mL/min/kg, respectively. The CLint scaled in series [3] was 23 mL/min/kg. The Papp A→B at 2 h in series [4] was 14 ×10⁻⁶ cm/s. The CLint scaled at 10000 µM in series [5] turned out to be 5 mL/min/kg. This compound registered an IC50 in series [6] of 227 nM.

Take `Cc1ccc2c(c1)[C@@H](N)C1(CCN(c3cnc4nc(Sc5ccnc(N)c5Cl)ccc4n3)CC1)C2`: the CLint scaled at […] in series [1] is 25 mL/min/kg; in series [2], 6 mL/min/kg. Also, the CLint scaled in series [3] was 33 mL/min/kg. In addition, the CLint scaled at 10000 µM in series [5] is 10 mL/min/kg. The IC50 in series [6] worked out at 17 nM.

For `Nc1nccc(Sc2ccc3nc(N4CCC5(CC4)Cc4ncc(F)cc4[C@H]5N)cnc3n2)c1Cl`, the CLint scaled at […] worked out at 47 mL/min/kg in series [1] and 13 mL/min/kg in series [2]. Further, the CLint scaled in series [3] is 26 mL/min/kg. Further, the Papp A→B at 2 h in series [4] stood at 9 ×10⁻⁶ cm/s. In series [5], the CLint scaled at 10000 µM is 12 mL/min/kg. The IC50 in series [6] is 6 nM.

Regarding `CC1(N)CCN(c2cnc3cc(-c4cccc(Cl)c4Cl)ccc3n2)CC1`, the IC50 in series [6] was greater than 20000 nM.

For `Nc1nccc(Sc2ccc3nc(N4CCC5(CC4)C[C@@H](O)C[C@H]5N)cnc3n2)c1Cl`, the CLint scaled at […] in series [1] turned out to be 10 mL/min/kg. Also, the CLint scaled in series [3] stood at 31 mL/min/kg. Moreover, in series [4], the Papp A→B at 2 h was determined as 1 ×10⁻⁶ cm/s. For the same compound, the CLint scaled at 10000 µM in series [5] worked out at 8 mL/min/kg. The same compound displayed an IC50 in series [6] of 142 nM.

Turning to `CC1(N)CCN(c2cnc3nc(Sc4cccn5nccc45)ccc3n2)CC1`, in series [4], the Papp A→B at 2 h was 14 ×10⁻⁶ cm/s. The IC50 in series [6] was determined as 1388 nM.
